From patent US12275731B2, “Azaindole inhibitors of wild-type and mutant forms of LRRK2” (DANA-FARBER CANCER INSTITUTE, INC., priority 2018, dated 2025)

What was measured:
Test in all cases: KinomeScan profiling
Assay type in all cases: binding
[1] = target: T1, ABL1(E255K)-phosphorylated (Homo sapiens, UniProt P00519, E255K); details: read-out: % control
T1 construct: purchased KinomeScan®
In short: (§1)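 Single-point competition binding screen: 1 μM, DMSO, 468 kinases. Results reported as % control from RLU, normalised to DMSO and positive-control wells. Activity threshold: <35% control.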

[2] = target: T2, AKT1 (Homo sapiens, UniProt P31749); details: AKT1, 1 μM; read-out: % control
T2 construct: purchased KinomeScan®
T2 sequence (P31749 whole entry): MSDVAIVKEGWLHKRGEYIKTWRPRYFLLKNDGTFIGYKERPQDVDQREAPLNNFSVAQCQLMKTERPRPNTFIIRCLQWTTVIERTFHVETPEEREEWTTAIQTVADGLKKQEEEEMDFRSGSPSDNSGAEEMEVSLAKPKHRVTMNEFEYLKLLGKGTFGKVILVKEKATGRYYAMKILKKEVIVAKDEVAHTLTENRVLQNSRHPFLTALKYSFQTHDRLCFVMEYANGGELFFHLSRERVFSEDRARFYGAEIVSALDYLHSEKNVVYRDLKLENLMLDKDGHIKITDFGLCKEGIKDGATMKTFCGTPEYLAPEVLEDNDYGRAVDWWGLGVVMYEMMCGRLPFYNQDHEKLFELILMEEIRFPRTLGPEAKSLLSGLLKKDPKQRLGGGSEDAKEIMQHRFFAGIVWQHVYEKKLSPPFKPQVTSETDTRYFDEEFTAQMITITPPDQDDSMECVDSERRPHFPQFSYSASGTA
In short: as §1

[3] = target: T3, HUNK (Homo sapiens, UniProt P57058); details: read-out: % control
T3 sequence (P57058 1-714): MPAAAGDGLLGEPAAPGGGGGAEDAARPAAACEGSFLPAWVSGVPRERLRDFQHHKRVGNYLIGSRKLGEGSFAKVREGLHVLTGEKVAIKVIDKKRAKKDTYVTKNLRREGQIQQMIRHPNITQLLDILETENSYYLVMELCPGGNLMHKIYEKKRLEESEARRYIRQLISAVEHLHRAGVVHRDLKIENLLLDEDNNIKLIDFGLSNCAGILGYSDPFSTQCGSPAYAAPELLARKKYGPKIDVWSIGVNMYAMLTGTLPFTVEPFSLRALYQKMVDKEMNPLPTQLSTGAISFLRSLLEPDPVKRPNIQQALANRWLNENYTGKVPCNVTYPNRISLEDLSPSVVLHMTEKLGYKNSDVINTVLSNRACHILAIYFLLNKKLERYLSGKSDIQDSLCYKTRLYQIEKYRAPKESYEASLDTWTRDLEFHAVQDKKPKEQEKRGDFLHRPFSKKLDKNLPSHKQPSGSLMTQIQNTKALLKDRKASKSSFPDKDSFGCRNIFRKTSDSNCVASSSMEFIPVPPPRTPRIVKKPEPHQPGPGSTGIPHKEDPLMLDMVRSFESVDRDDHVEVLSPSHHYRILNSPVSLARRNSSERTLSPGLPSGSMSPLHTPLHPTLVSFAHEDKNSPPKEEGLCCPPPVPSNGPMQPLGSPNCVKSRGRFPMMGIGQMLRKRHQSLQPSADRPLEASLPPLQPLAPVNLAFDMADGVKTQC
In short: as §1

[4] = target: T4, RSK4(Kin.Dom.1-N-terminal) (Homo sapiens, UniProt Q9UK32); details: read-out: % control
T4 construct: ribosomal S6 Kinase 4 (RSK4)(Kin.Dom.1-N-terminal)
T4 sequence (Q9UK32 73-330 limits assumed): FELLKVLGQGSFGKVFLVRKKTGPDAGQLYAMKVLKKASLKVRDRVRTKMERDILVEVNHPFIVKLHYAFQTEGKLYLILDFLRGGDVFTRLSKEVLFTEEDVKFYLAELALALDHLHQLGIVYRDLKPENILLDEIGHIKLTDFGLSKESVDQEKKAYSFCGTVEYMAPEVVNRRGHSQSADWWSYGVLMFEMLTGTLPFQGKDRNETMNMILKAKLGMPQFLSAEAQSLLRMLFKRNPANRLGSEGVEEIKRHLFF
In short: as §1

[5] = target: T5, ACVR2B (Homo sapiens, UniProt Q13705); details: read-out: % control
T5 construct: purchased KinomeScan®
T5 sequence (Q13705 19-512): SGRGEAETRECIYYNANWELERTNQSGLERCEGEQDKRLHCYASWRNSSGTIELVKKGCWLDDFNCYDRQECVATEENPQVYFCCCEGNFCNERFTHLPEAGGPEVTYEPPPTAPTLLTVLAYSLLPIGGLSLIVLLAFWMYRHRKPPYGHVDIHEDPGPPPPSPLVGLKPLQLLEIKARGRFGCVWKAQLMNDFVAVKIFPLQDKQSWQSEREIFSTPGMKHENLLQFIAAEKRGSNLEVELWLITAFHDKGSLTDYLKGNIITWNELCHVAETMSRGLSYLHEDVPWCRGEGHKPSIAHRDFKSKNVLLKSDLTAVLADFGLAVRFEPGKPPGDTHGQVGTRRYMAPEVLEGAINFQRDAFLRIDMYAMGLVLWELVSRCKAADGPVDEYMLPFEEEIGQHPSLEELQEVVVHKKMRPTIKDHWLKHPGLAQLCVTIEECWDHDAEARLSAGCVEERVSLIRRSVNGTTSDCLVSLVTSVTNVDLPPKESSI
In short: as §1

[6] = target: CDK2 (Homo sapiens, UniProt P24941); details: CDK2, 1 μM; read-out: % control
In short: as §1

[7] = target: T6, FLT3(N841I) (Homo sapiens, UniProt P36888, N841I); details: read-out: % control
T6 sequence (P36888 27-993 N841I): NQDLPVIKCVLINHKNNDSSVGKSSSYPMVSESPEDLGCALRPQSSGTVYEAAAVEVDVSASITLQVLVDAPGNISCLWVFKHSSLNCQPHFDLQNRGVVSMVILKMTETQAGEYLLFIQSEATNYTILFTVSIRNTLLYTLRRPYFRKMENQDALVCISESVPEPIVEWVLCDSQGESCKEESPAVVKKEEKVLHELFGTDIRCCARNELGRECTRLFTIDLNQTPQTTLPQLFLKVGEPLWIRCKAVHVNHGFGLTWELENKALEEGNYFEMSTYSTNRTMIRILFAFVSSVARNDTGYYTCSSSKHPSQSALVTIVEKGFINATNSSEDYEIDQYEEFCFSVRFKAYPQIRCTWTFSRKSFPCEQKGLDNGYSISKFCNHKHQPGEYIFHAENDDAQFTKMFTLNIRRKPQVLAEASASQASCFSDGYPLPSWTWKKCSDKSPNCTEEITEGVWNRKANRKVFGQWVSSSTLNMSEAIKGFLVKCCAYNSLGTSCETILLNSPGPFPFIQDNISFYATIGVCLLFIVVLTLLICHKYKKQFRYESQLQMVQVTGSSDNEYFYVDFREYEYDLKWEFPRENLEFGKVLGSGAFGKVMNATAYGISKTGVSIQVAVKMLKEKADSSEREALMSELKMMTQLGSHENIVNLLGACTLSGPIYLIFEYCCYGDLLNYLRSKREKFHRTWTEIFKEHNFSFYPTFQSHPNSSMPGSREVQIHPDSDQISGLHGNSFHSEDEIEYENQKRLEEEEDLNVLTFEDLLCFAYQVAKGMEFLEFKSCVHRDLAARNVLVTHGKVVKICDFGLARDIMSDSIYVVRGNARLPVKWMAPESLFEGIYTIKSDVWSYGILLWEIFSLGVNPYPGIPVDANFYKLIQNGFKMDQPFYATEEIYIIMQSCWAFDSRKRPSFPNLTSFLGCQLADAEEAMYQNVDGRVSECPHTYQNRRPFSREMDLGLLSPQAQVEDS
In short: as §1

[8] = target: OSR1 (Homo sapiens, UniProt O95747); details: OSR1, 1 μM; read-out: % control
Chain of OSR1 (O95747 whole entry): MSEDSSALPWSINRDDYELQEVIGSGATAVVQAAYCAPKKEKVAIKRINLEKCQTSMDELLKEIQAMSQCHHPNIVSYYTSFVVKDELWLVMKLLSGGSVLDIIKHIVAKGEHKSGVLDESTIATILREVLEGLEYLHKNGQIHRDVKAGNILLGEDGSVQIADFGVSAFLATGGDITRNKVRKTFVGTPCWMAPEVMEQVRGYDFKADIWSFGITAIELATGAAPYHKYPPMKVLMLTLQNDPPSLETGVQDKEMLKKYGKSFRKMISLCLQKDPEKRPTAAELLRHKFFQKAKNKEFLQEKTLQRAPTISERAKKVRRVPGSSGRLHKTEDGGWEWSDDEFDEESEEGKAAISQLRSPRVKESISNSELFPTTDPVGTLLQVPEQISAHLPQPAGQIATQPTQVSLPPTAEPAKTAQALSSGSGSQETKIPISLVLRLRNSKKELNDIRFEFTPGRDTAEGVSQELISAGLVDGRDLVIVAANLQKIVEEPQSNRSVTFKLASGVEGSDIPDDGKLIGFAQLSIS
In short: as §1

[9] = target: T7, SIK (Homo sapiens, UniProt P57059); details: read-out: % control
T7 construct: purchased KinomeScan® (panel service)
T7 sequence (P57059 whole entry): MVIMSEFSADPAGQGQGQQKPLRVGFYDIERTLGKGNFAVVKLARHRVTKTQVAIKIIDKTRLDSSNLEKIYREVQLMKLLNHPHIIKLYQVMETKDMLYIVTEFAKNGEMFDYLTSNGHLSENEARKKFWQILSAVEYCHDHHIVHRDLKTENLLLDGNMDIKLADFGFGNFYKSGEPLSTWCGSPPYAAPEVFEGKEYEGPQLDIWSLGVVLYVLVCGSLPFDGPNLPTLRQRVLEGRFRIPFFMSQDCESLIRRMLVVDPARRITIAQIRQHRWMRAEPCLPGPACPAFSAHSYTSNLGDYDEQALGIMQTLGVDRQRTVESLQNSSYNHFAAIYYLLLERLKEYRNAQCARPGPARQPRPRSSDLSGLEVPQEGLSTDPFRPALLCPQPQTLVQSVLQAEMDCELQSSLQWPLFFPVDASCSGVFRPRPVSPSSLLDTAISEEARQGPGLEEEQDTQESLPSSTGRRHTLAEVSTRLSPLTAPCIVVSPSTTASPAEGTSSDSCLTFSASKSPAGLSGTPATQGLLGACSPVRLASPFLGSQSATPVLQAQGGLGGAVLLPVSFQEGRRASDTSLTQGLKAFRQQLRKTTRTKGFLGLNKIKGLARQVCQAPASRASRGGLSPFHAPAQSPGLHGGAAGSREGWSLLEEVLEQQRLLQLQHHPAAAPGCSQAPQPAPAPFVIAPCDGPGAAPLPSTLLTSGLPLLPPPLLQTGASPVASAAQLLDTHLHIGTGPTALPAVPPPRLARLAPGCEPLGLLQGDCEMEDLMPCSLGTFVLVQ
In short: as §1

T1 sequence (P00519 whole entry E255K): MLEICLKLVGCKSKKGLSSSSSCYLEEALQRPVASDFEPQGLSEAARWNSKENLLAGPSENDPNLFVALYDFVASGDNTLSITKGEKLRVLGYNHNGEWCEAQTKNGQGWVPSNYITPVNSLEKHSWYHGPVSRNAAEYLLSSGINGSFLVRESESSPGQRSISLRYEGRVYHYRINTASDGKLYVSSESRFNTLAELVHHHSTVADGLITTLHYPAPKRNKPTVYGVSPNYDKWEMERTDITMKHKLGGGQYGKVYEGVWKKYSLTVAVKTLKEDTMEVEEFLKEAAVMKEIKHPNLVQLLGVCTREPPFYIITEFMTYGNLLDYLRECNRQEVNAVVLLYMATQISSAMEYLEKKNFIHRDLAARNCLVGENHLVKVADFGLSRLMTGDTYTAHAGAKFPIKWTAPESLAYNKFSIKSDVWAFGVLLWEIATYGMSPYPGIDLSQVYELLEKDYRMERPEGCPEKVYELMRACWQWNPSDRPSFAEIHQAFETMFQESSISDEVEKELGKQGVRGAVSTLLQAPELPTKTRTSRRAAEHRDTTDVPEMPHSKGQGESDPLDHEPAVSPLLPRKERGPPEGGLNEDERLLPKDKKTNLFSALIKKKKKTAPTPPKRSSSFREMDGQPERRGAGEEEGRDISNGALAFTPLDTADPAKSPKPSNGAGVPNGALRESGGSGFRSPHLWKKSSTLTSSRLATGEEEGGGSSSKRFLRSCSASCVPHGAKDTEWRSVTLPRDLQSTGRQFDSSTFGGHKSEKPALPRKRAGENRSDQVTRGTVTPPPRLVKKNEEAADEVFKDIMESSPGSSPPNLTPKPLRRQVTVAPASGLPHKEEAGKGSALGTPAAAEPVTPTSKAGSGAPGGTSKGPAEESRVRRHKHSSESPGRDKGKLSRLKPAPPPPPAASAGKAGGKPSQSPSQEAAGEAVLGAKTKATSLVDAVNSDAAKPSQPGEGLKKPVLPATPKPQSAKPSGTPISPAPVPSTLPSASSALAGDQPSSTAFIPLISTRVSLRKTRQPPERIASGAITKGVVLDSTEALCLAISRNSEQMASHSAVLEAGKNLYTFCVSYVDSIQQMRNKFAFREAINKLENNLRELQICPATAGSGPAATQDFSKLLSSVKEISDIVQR

Compound	remaining binding at 1 µM [1] [%]	remaining binding at 1 µM [2] [%]	remaining binding at 1 µM [3] [%]	remaining binding at 1 µM [4] [%]	remaining binding at 1 µM [5] [%]	remaining binding at 1 µM [6] [%]	remaining binding at 1 µM [7] [%]	remaining binding at 1 µM [8] [%]	remaining binding at 1 µM [9] [%]
CNc1c(-c2ccc(C(=O)N3CCC(N4CCOCC4)CC3)cc2)cnc2[nH]cc(Cl)c12 [Compound 96, (4-(3-chloro-4-(methylamino)-1H-pyrrolo[2,3-b]pyridin-5-yl)phenyl)(4-morpholinopiperidin-1-yl)methanone]	92	100	100	77	91	100	14	66	87
O=C(c1ccc(-c2cnc3[nH]cc(Cl)c3c2NC2CCCC2)cc1)N1CCC(N2CCOCC2)CC1 [Compound 101, (4-(3-chloro-4-(cyclopentylamino)-1H-pyrrolo[2,3-b]pyridin-5-yl)phenyl)(4-morpholinopiperidin-1-yl)methanone]	100	96	100	100	100	100	2.6	100	100
CNc1c(-c2cnn([C@H]3CCN(C(C)=O)C[C@@H]3F)c2)cnc2[nH]cc(Cl)c12 [Compound 77, 1-((3S,4S)-4-(4-(3-chloro-4-(methylamino)-1H-pyrrolo[2,3-b]pyridin-5-yl)-1H-pyrazol-1-yl)-3-fluoropiperidin-1-yl)ethan-1-one]	73	100	100	32	77	100	1	75	94
